Read-outs that look alike come from different tables or passages of the source.
Target: T1, F508delCFTR (Homo sapiens, UniProt P13569, DEL508-508)
T1 construct: expressed in transfected cells; host or cells: CFBE41o- human lung-derived epithelial cells (CFBE4lo-F508delCFTR-HRP), doxycycline-inducible
Experiment: Cell Surface Expression-Horse Radish Peroxidase (CSE-HRP) Assay;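 as to Maximum % activity (with co-corrector): co-corrector and positive control are both the same reference corrector at 2 µM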;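 as to Maximum % activity (without co-corrector): percent of the 2 µM on-plate positive control corrector response above DMSO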
Type: cell-based
Details: for Emax / Maximum % activity (with co-corrector): maximum at any tested concentration, normalized to on-plate positive control; for Emax: read-out: Maximum % activity (without co-corrector); for Maximum % activity (with co-corrector): with co-corrector (2 μM)

[1] = test compound without co-corrector
[2] = test compound without co-corrector, read-out: EC50 (without co-corrector)
[3] = with co-corrector (2 μM of 3-[(2R,4R)-4-({[1-(2,2-difluoro-1,3-benzodioxol-5-yl)cyclopropyl]carbonyl}amino)-7-methoxy-3,4-dihydro-2H-chromen-2-yl]benzoic acid), read-out: EC50 (with co-corrector)

T1 sequence (P13569 with tags, fused parts or gaps DEL508-508): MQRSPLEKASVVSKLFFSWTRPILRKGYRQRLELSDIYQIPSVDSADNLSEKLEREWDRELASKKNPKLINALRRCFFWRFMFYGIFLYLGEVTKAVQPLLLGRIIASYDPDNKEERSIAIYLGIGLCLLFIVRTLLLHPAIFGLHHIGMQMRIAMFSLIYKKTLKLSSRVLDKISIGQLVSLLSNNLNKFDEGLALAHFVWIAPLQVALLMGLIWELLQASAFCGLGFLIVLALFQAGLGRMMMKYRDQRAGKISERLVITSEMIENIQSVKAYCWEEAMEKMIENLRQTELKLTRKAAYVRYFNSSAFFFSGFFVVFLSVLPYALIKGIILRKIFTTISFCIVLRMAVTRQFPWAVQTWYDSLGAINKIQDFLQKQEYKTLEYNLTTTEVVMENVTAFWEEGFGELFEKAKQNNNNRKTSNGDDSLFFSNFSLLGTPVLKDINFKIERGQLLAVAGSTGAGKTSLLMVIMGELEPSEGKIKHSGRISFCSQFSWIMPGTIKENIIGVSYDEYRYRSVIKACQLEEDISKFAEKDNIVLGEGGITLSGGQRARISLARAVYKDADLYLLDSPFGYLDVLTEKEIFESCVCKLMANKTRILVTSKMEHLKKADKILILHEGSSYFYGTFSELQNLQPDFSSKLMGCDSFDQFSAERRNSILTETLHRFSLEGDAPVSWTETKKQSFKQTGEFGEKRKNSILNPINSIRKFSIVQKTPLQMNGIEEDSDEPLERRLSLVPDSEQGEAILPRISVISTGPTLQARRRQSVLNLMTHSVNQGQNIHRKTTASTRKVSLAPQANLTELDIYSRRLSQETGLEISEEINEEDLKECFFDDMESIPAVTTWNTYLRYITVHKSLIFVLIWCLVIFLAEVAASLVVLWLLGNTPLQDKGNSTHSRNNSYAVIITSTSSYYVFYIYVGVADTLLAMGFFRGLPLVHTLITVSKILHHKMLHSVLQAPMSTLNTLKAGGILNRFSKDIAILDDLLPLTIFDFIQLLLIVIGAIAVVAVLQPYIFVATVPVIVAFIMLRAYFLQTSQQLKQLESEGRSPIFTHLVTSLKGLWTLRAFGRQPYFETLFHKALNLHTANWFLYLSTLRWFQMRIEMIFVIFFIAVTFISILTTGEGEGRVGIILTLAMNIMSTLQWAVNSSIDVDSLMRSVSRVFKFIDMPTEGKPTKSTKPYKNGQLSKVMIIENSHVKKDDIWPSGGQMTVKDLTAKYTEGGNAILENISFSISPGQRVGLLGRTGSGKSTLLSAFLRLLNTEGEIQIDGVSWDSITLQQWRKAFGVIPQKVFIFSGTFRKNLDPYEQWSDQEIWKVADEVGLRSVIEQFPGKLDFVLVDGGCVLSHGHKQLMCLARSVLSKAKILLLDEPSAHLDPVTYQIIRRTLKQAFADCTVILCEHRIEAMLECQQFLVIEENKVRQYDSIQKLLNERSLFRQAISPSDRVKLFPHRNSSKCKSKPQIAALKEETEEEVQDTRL

Row | Emax [1] | EC50 [2] | EC50 [3] | Maximum % activity (with co-corrector) | SMILES
1 | < 100% | > 10 µM | 1 to 10 µM | ++ (≥150 and <350) | CC(C)(C)[C@H]1[C@H](NCc2ccc(C#N)cc2F)[C@H](c2ccccc2)N(C(=O)C2CCCCC2)[C@@H]1C(=O)O [III-121]
2 | < 100% | > 10 µM | 1 to 10 µM | ++ (≥150 and <350) | CC(C)(C)[C@H]1[C@H](NCc2ccc3c(c2)CCO3)[C@H](c2ccccc2)N(C(=O)C2CCCCC2)[C@@H]1C(=O)O [III-122]
3 | < 100% | < 1 µM | < 1 µM | ++ (≥150 and <350) | CC(C)(C)[C@H]1[C@H](NCc2ccc(F)cc2C(F)(F)F)[C@H](c2ccccc2)N(C(=O)C2CCCCC2)[C@@H]1C(=O)O [III-123]
4 | < 100% | > 10 µM | 1 to 10 µM | ++ (≥150 and <350) | CC(C)(C)[C@H]1[C@H](NCc2ccc(F)c(C#N)c2)[C@H](c2ccccc2)N(C(=O)C2CCCCC2)[C@@H]1C(=O)O [III-125]
5 | < 100% | 1 to 10 µM | 1 to 10 µM | ++ (≥150 and <350) | COc1ccc(CN[C@H]2[C@H](C(C)(C)C)[C@@H](C(=O)O)N(C(=O)C3CCCCC3)[C@H]2c2ccccc2)cc1Cl [III-126]
6 | < 100% | > 10 µM | > 10 µM | + (<150) | CC(C)(C)[C@H]1[C@H](NCc2ccc(F)cc2C#N)[C@H](c2ccccc2)N(C(=O)C2CCCCC2)[C@@H]1C(=O)O [III-127]
7 | < 100% | > 10 µM | 1 to 10 µM | ++ (≥150 and <350) | CC(C)(C)[C@H]1[C@H](NCc2ccc(OC(F)(F)F)c(F)c2)[C@H](c2ccccc2)N(C(=O)C2CCCCC2)[C@@H]1C(=O)O [III-128]
8 | < 100% | > 10 µM | 1 to 10 µM | ++ (≥150 and <350) | CC(C)(C)[C@H]1[C@H](NCc2ccc3c(c2)OCCCO3)[C@H](c2ccccc2)N(C(=O)C2CCCCC2)[C@@H]1C(=O)O [III-129]
9 | < 100% | > 10 µM | 1 to 10 µM | ++ (≥150 and <350) | CC(C)(C)[C@H]1[C@H](NCc2ccc(Cl)c(Cl)c2)[C@H](c2ccccc2)N(C(=O)C2CCCCC2)[C@@H]1C(=O)O [III-130]
10 | < 100% | > 10 µM | 1 to 10 µM | ++ (≥150 and <350) | CC(C)(C)[C@H]1[C@H](NCc2ccc3c(c2)OC(F)(F)O3)[C@H](c2ccccc2)N(C(=O)C2CCCCC2)[C@@H]1C(=O)O [III-132]
11 | < 100% | 1 to 10 µM | 1 to 10 µM | ++ (≥150 and <350) | Cc1ccc(CN[C@H]2[C@H](C(C)(C)C)[C@@H](C(=O)O)N(C(=O)C3CCCCC3)[C@H]2c2ccccc2)cc1C [III-134]
12 | < 100% | > 10 µM | 1 to 10 µM | ++ (≥150 and <350) | CC(C)(C)[C@H]1[C@H](NCc2ccc3occc3c2)[C@H](c2ccccc2)N(C(=O)C2CCCCC2)[C@@H]1C(=O)O [III-135]
13 | < 100% | > 10 µM | 1 to 10 µM | ++ (≥150 and <350) | CC(C)(C)[C@H]1[C@H](NCc2ccc(C(F)(F)F)cc2F)[C@H](c2ccccc2)N(C(=O)C2CCCCC2)[C@@H]1C(=O)O [III-136]
14 | < 100% | > 10 µM | 1 to 10 µM | ++ (≥150 and <350) | CC(C)(C)[C@H]1[C@H](NCc2ccc(C(F)(F)F)cc2)[C@H](c2ccccc2)N(C(=O)C2CCCCC2)[C@@H]1C(=O)O [III-138]
15 | < 100% | > 10 µM | 1 to 10 µM | ++ (≥150 and <350) | CC(C)(C)[C@H]1[C@H](NCc2cc(Cl)c3c(c2)OCO3)[C@H](c2ccccc2)N(C(=O)C2CCCCC2)[C@@H]1C(=O)O [III-140]

Further lines, the molecule ahead of its results:

Row | SMILES | Emax [1] | EC50 [2] | EC50 [3] | Maximum % activity (with co-corrector)
16 | CC(C)Oc1ccc(Cl)cc1CN[C@H]1[C@H](C(C)(C)C)[C@@H](C(=O)O)N(C(=O)C2CCCCC2)[C@H]1c1ccccc1 [III-124] | < 100% | 1 to 10 µM | < 1 µM | +++ (≥350)
17 | CC(C)(C)[C@H]1[C@H](NCc2cc(Br)ccc2OC(F)F)[C@H](c2ccccc2)N(C(=O)C2CCCCC2)[C@@H]1C(=O)O [III-131] | < 100% | < 1 µM | 1 to 10 µM | +++ (≥350)
18 | COc1cc(CN[C@H]2[C@H](C(C)(C)C)[C@@H](C(=O)O)N(C(=O)C3CCCCC3)[C@H]2c2ccccc2)cc(OC)c1 [III-133] | < 100% | > 10 µM | 1 to 10 µM | ++ (≥150 and <350)
19 | COc1ccc(C(F)(F)F)cc1CN[C@H]1[C@H](C(C)(C)C)[C@@H](C(=O)O)N(C(=O)C2(S(C)(=O)=O)CC2)[C@H]1c1ccccc1 [III-137] | < 100% | 1 to 10 µM | 1 to 10 µM | ++ (≥150 and <350)
20 | CC(C)(C)[C@H]1[C@H](NCc2ccccc2C(F)F)[C@H](c2ccccc2)N(C(=O)C2CCCCC2)[C@@H]1C(=O)O [III-139] | < 100% | < 1 µM | < 1 µM | ++ (≥150 and <350)
21 | Cc1cc(CN[C@H]2[C@H](C(C)(C)C)[C@@H](C(=O)O)N(C(=O)C3CCCCC3)[C@H]2c2ccccc2)cc(C)c1OC(F)F [III-141] | < 100% | 1 to 10 µM | 1 to 10 µM | ++ (≥150 and <350)
22 | CC(C)(C)[C@H]1[C@H](NCc2cc3c(cc2Cl)OCO3)[C@H](c2ccccc2)N(C(=O)C2CCCCC2)[C@@H]1C(=O)O [III-142] | < 100% | 1 to 10 µM | 1 to 10 µM | ++ (≥150 and <350)
23 | CC(C)(C)[C@H]1[C@H](Nc2nc(Cl)c(F)cc2C#N)[C@H](c2ccccc2)N(C(=O)C2CCCCC2)[C@@H]1C(=O)O [III-145] | < 100% | 1 to 10 µM | 1 to 10 µM | ++ (≥150 and <350)
24 | CC(C)(C)[C@H]1[C@H](Nc2cc(C#N)cc(Cl)n2)[C@H](c2ccccc2)N(C(=O)C2CCCCC2)[C@@H]1C(=O)O [III-146] | < 100% | > 10 µM | 1 to 10 µM | ++ (≥150 and <350)
25 | CC(C)(O)c1cc(Cl)nc(N[C@H]2[C@H](C(C)(C)C)[C@@H](C(=O)O)N(C(=O)C3CCCCC3)[C@H]2c2ccccc2)c1 [III-147] | < 100% | > 10 µM | 1 to 10 µM | ++ (≥150 and <350)
26 | Cc1cc(C)c(C#N)c(N[C@H]2[C@H](C(C)(C)C)[C@@H](C(=O)O)N(C(=O)C3CCCCC3)[C@H]2c2ccccc2)n1 [III-148] | < 100% | 1 to 10 µM | 1 to 10 µM | +++ (≥350)
27 | CCc1cc2ccc(Cl)cc2nc1N[C@H]1[C@H](C(C)(C)C)[C@@H](C(=O)O)N(C(=O)C2CCCCC2)[C@H]1c1ccccc1 [III-149] | 100 to 200% | 1 to 10 µM | 1 to 10 µM | +++ (≥350)
28 | CC(C)(C)[C@H]1[C@H](Nc2nc(Nc3ccccc3)ccc2C#N)[C@H](c2ccccc2)N(C(=O)C2CCCCC2)[C@@H]1C(=O)O [III-150] | < 100% | > 10 µM | > 10 µM | + (<150)
29 | COc1ccc2c(C)cc(N[C@H]3[C@H](C(C)(C)C)[C@@H](C(=O)O)N(C(=O)C4CCCCC4)[C@H]3c3ccccc3)nc2c1 [III-151] | < 100% | 1 to 10 µM | 1 to 10 µM | ++ (≥150 and <350)
30 | CCOc1cc(N[C@H]2[C@H](C(C)(C)C)[C@@H](C(=O)O)N(C(=O)C3CCCCC3)[C@H]2c2ccccc2)nc2ccccc12 [III-152] | < 100% | > 10 µM | 1 to 10 µM | ++ (≥150 and <350)

Reference: patent publication US20180099931A1 (AbbVie S.à.r.l., priority 2016, published 2018)
